Like-named read-outs stand apart in the source and are kept apart here.
How the values were obtained:
FGFR1 = FGFR1 (Homo sapiens (Human), UniProt P11362); test: FGFR Enzymatic Assay (FRET peptide phosphorylation), FGFR1; conditions: for FGFR1/FGFR4: IC50 ratio
Protocol: (§1) The inhibitor potency of the exemplified compounds was measured in an enzyme assay that measures peptide phosphorylation using FRET measurements to detect product formation. Inhibitors were serially diluted in DMSO and a volume of 0.5 μL was transferred to the wells of a 384-well plate. For FGFR3, a 10 μL volume of FGFR3 enzyme (Millipore) diluted in assay buffer (50 mM HEPES, 10 mM MgCl2, 1 mM EGTA, 0.01% Tween-20, 5 mM DTT, pH 7.5) was added to the plate and pre-incubated for a time between 5-10 minutes and up to 4 hours. Appropriate controls (enzyme blank and enzyme with no inhibitor) were included on the plate. […] The plate was incubated at 25° C. for 1 hr. […] The plate was allowed to equilibrate for ˜1 hr before scanning the wells on a PheraStar plate reader (BMG Labtech).
(§2) The enzymes were purchased from Millipore or Invitrogen.
(§3) GraphPad prism3 was used to analyze the data. The IC50 values were derived by fitting the data to the equation for a sigmoidal dose-response with a variable slope. Y=Bottom+(Top-Bottom)/(1+10^((Log IC50−X)*HillSlope)) where X is the logarithm of concentration and Y is the response.

FGFR2 = FGFR2 (Homo sapiens (Human), UniProt P21802); test: FGFR Enzymatic Assay (FRET peptide phosphorylation), FGFR2; conditions: for FGFR2/FGFR4: IC50 ratio
Protocol: as §1, §2, §3

FGFR3 = FGFR3 (Homo sapiens (Human), UniProt P22607); test: FGFR Enzymatic Assay (FRET peptide phosphorylation), FGFR3; conditions: for FGFR3/FGFR4: IC50 ratio
Chain of FGFR3 (P22607 23-806): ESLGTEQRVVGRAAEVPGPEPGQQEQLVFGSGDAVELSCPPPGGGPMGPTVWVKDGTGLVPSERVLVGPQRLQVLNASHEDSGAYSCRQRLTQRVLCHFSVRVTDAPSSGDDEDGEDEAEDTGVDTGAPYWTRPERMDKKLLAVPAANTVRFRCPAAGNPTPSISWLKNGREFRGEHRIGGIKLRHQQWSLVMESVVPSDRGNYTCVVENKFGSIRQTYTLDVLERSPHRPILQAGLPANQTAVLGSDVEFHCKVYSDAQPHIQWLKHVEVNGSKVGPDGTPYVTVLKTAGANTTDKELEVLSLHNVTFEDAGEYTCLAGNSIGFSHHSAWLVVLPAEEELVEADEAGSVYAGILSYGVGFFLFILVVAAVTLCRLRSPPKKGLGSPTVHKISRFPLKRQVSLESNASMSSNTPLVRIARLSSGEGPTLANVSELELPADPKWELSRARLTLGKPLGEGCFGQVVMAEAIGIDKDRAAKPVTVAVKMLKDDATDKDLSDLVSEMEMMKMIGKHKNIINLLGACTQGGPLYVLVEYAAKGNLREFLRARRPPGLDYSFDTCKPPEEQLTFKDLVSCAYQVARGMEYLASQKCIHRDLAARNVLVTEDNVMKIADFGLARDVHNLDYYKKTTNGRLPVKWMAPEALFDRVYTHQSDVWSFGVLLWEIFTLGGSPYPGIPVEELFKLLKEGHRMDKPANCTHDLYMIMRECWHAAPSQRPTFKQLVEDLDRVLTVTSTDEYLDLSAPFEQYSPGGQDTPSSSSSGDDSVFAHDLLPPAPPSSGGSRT
Protocol: Inhibitors were serially diluted in DMSO and a volume of 0.5 μL was transferred to the wells of a 384-well plate. For FGFR3, a 10 μL volume of FGFR3 enzyme (Millipore) diluted in assay buffer (50 mM HEPES, 10 mM MgCl2, 1 mM EGTA, 0.01% Tween-20, 5 mM DTT, pH 7.5) was added to the plate and pre-incubated for a time between 5-10 minutes and up to 4 hours. Appropriate controls (enzyme blank and enzyme with no inhibitor) were included on the plate. […] The plate was incubated at 25° C. for 1 hr. […] The plate was allowed to equilibrate for ˜1 hr before scanning the wells on a PheraStar plate reader (BMG Labtech).
as §3

FGFR4 = FGFR4 (Homo sapiens (Human), UniProt P22455); test: FGFR Enzymatic Assay (FRET peptide phosphorylation), FGFR4
Chain of FGFR4 (P22455 22-802): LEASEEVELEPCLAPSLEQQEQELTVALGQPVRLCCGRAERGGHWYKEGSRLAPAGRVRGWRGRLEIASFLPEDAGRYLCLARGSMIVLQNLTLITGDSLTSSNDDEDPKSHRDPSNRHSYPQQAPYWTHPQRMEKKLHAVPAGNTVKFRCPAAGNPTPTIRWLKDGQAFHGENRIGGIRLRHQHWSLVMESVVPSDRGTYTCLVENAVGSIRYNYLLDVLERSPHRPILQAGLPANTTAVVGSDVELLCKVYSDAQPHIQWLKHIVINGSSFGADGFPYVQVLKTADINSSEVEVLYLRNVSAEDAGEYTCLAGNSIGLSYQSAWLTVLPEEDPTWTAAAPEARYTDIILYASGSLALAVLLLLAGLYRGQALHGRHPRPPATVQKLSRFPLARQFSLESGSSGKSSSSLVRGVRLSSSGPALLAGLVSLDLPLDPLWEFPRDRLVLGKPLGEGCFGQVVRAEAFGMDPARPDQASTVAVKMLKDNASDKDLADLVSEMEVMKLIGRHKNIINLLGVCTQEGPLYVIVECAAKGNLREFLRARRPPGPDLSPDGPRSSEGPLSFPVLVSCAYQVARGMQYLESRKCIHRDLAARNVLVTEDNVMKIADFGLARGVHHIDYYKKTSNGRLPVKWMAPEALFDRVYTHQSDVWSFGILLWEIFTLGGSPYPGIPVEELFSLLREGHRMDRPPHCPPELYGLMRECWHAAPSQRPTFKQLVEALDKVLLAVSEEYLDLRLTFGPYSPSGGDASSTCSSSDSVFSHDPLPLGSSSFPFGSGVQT
Protocol: as §1, §2, §3

[1] = FGFR1 IC50 (nM), pre-incubated for 5 to 10 minutes
[2] = FGFR1 IC50 (nM), pre-incubated for 4 hours
[3] = pre-incubated for 5 to 10 minutes
[4] = read-out: FGFR2 IC50, pre-incubated for 5 to 10 minutes
[5] = read-out: FGFR3 IC50, pre-incubated for 5 to 10 minutes
[6] = FGFR4 IC50 (nM), pre-incubated for 5 to 10 minutes
[7] = FGFR4 IC50 (nM), pre-incubated for 4 hours
[8] = read-out: FGFR4 IC50, pre-incubated for 5 to 10 minutes
[9] = read-out: FGFR4 IC50, pre-incubated for 4 hours
[10] = read-out: FGFR1 IC50, pre-incubated for 5 to 10 minutes
[11] = read-out: FGFR1 IC50, pre-incubated for 4 hours
[12] = read-out: FGFR2 IC50, pre-incubated for 4 hours
[13] = read-out: FGFR3 IC50, pre-incubated for 4 hours

Chain of FGFR2 (P21802 22-821): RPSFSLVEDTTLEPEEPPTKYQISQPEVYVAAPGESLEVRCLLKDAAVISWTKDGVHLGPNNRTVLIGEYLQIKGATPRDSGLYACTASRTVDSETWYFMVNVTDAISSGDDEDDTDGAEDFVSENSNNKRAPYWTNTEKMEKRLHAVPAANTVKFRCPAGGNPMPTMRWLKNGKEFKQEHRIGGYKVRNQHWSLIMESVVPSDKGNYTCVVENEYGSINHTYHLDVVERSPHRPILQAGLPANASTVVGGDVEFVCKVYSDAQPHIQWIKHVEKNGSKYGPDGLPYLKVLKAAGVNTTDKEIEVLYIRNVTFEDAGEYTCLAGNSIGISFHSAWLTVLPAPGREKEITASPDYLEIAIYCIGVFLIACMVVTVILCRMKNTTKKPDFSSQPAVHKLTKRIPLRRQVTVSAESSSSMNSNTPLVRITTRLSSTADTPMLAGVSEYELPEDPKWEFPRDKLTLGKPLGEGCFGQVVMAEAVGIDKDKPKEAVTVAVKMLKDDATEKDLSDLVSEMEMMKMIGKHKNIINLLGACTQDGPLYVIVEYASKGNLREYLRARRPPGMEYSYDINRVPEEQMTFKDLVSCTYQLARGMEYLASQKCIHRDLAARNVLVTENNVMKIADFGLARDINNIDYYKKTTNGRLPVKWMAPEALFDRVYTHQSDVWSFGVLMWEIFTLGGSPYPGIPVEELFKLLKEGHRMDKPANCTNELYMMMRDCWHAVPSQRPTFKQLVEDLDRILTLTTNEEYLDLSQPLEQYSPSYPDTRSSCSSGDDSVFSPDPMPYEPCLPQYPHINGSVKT
Chain of FGFR1 (P11362 22-822): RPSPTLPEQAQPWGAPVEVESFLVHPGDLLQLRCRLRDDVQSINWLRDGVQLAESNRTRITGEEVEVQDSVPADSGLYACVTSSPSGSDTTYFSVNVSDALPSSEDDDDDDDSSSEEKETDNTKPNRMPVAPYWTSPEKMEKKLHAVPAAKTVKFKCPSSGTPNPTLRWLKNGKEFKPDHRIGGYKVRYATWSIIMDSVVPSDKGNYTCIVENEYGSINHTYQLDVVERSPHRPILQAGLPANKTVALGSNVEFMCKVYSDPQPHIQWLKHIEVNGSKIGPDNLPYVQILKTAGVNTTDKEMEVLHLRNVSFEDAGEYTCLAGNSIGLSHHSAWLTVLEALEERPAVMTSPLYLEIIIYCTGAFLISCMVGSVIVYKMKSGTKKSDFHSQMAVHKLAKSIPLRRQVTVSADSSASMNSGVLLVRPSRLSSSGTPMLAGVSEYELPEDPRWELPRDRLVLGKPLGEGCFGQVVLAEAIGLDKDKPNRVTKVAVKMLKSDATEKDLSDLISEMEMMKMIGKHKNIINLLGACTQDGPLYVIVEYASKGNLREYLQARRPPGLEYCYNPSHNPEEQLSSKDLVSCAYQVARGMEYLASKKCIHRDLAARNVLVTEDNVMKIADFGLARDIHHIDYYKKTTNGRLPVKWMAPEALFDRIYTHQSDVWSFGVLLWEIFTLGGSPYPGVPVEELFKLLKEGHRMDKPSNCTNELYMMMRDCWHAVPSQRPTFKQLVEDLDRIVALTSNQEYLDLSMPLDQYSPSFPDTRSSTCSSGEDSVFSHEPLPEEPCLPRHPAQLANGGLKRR

SMILES | IC50 (FGFR1; [1]) [nM] | IC50 (FGFR1; [2]) [nM] | FGFR1/FGFR4 (FGFR1; [3]) | FGFR1/FGFR4 (FGFR1; pre-incubated for 4 hours) | IC50 (FGFR2) [nM] | FGFR2/FGFR4 (FGFR2; [3]) | FGFR2/FGFR4 (FGFR2; pre-incubated for 4 hours) | IC50 (FGFR2; [4]) [nM] | IC50 (FGFR3) [nM] | FGFR3/FGFR4 (FGFR3; [3]) | FGFR3/FGFR4 (FGFR3; pre-incubated for 4 hours) | IC50 (FGFR3; [5]) [nM] | IC50 (FGFR4; [6]) [nM] | IC50 (FGFR4; [7]) [nM] | IC50 (FGFR4; [8]) [nM] | IC50 (FGFR4; [9]) [nM] | IC50 (FGFR1; [10]) [nM] | IC50 (FGFR1; [11]) [nM] | IC50 (FGFR2; [12]) [nM] | IC50 (FGFR3; [13]) [nM]
C=CC(=O)NC1CCCCC1Nc1cc2c(cn1)CN(c1c(F)c(OC)cc(OC)c1F)C(=O)C21CC1 (racemic) [Example 3, N-(2-(2′-(2,6-difluoro-3,5-dimethoxyphenyl)-3′-oxo-2′,3′-dihydro-1′H-spiro [cyclopropane-1,4′-[2,7]naphthyridine]-6′-ylamino)cyclohexyl)acrylamide] | > 200 | > 200 | >5 | >25 | > 200 | >5 | >25 | > 200 | > 200 | >10 | >100 | > 200 | 30 to 200 | < 10 | – | – | – | – | – | –
C=CC(=O)NC1COCC1Nc1cc2c(cn1)CN(c1c(F)c(OC)cc(OC)c1F)C(=O)C21CC1 (racemic) [Example 4, N-(4-(2′-(2,6-difluoro-3,5-dimethoxyphenyl)-3′-oxo-2′,3′-dihydro-1′H-spiro[cyclopropane-1,4′-[2,7]naphthyridine]-6′-ylamino)tetrahydrofuran-3-yl)acrylamide] | > 200 | 30 to 200 | >10 | >100 | > 200 | >10 | >100 | > 200 | > 200 | >10 | >100 | > 200 | < 10 | < 10 | – | – | – | – | – | –
C=CC(=O)Nc1ccccc1Nc1cc2c(cn1)CN(c1c(F)c(OC)cc(OC)c1F)C(=O)C21CC1 [Example 1, N-(2-(2′-(2,6-difluoro-3,5-dimethoxyphenyl)-3′-oxo-2′,3′-dihydro-1H-spiro[cyclopropane-1,4′-[2,7]naphthyridine]-6′-ylamino)phenyl)acrylamide] | 30 to 200 | 30 to 200 | >10 | >100 | 30 to 200 | >10 | >100 | 30 to 200 | 30 to 200 | >10 | >100 | 30 to 200 | – | – | < 10 | < 10 | – | – | – | –
C=CC(=O)N(C)c1cc2c(cn1)CN(c1c(F)c(OC)cc(OC)c1F)C(=O)C21CC1 [Example 2, N-(2′-(2,6-difluoro-3,5-dimethoxyphenyl)-3′-oxo-2′,3′-dihydro-1′H-spiro [cyclopropane-1,4′-[2,7]naphthyridine]-6′-yl)-N-methylacrylamide] | 30 to 200 | 30 to 200 | >5 | >10 | 30 to 200 | >2 | >5 | 30 to 200 | 30 to 200 | >5 | >10 | > 200 | 10 to 30 | – | – | < 10 | – | – | – | –
C=CC(=O)Nc1cccc(C)c1Nc1cc2c(cn1)CN(c1c(F)c(OC)cc(OC)c1F)C(=O)C21CC1 [Example 5, N-(2-(2′-(2,6-difluoro-3,5-dimethoxyphenyl)-3′-oxo-2′,3′-dihydro-1′H-spiro [cyclopropane-1,4′-[2,7]naphthyridine]-6′-ylamino)-3-methylphenyl)acrylamide] | – | – | >10 | >100 | – | >10 | >100 | > 200 | – | >10 | >100 | > 200 | – | – | < 10 | < 10 | > 200 | > 200 | > 200 | > 200
C=CC(=O)Nc1ccccc1Nc1cc2c(cn1)CN(c1c(F)c(OC)cc(OC)c1F)C(=O)C2(C)C [Example 6, N-(2-(7-(2,6-difluoro-3,5-dimethoxyphenyl)-5,5-dimethyl-6-oxo-5,6,7,8-tetrahydro-2,7-naphthyridin-3-ylamino)phenyl)acrylamide] | – | – | >10 | >100 | – | >10 | >100 | > 200 | – | >10 | >100 | > 200 | 10 to 30 | – | – | < 10 | > 200 | > 200 | > 200 | > 200
C=CC(=O)Nc1ccccc1Nc1cc2c(cn1)CN(c1c(F)c(OC)cc(OC)c1F)C(=O)C21CCCC1 [Example 7, N-(2-(2′-(2,6-difluoro-3,5-dimethoxyphenyl)-3′-oxo-2′,3′-dihydro-1′H-spiro [cyclopentane-1,4′-[2,7]naphthyridine]-6′-ylamino)phenyl)acrylamide] | 30 to 200 | 30 to 200 | >10 | >100 | 30 to 200 | >10 | >100 | > 200 | – | >10 | >100 | > 200 | – | – | < 10 | < 10 | – | – | – | > 200
C=CC(=O)Nc1ccccc1Nc1cc2c(cn1)CN(c1c(F)c(OC)cc(OC)c1F)C(=O)C21CCOCC1 [Example 8, N-(2-(2-(2,6-difluoro-3,5-dimethoxyphenyl)-3-oxo-2,2′,3,3′,5′,6′-hexahydro-1H-spiro[[2,7]naphthyridine-4,4′-pyran]-6-ylamino)phenyl)acrylamide] | – | – | >10 | >100 | – | >10 | >100 | > 200 | – | >10 | >100 | > 200 | – | – | > 200 | < 10 | > 200 | > 200 | > 200 | > 200
C=CC(=O)Nc1ccccc1Nc1cc2c(cn1)CN(c1c(F)c(OC)cc(OC)c1F)C(=O)C21CCOC1 (stereo not drawn) [Example 9, N-(2-(2′-(2,6-difluoro-3,5-dimethoxyphenyl)-3′-oxo-2′,3′,4,5-tetrahydro-1′H,2H-spiro[furan-3,4′-[2,7]naphthyridine]-6′-ylamino)phenyl)acrylamide] | – | – | >10 | >100 | – | >10 | >100 | > 200 | – | >10 | >100 | > 200 | 10 to 30 | – | – | < 10 | > 200 | > 200 | > 200 | > 200
C=CC(=O)Nc1ccc(N2CCOCC2)cc1Nc1cc2c(cn1)CN(c1c(F)c(OC)cc(OC)c1F)C(=O)C21CC1 [Example 10, N-(2-{[2′-(2,6-difluoro-3,5-dimethoxyphenyl)-3′-oxo-2′,3′-dihydro-1′H-spiro [cyclopropane-1,4′-[2,7]naphthyridin]-6′-yl]amino}-4-morpholin-4-ylphenyl)acrylamide] | – | 30 to 200 | >10 | >100 | – | >10 | >100 | > 200 | 30 to 200 | >10 | >100 | 30 to 200 | – | – | < 10 | < 10 | > 200 | – | > 200 | –
C=CC(=O)Nc1ccc(N2CCN(C)CC2)cc1Nc1cc2c(cn1)CN(c1c(F)c(OC)cc(OC)c1F)C(=O)C21CC1 [Example 11, N-(2-(2′-(2,6-difluoro-3,5-dimethoxyphenyl)-3′-oxo-2′,3′-dihydro-1′H-spiro [cyclopropane-1,4′-[2,7]naphthyridine]-6′-ylamino)-4-(4-methylpiperazin-1-yl)phenyl)acrylamide] | – | 30 to 200 | >10 | >25 | 30 to 200 | >10 | >25 | > 200 | – | >10 | >100 | > 200 | – | – | < 10 | < 10 | > 200 | – | – | > 200
C=CC(=O)N[C@H]1CCC[C@H]1Oc1ncc2c(n1)C1(CC1)C(=O)N(c1c(F)c(OC)cc(OC)c1F)C2 [Example 12, N-((1 S,2R)-2-(6′-(2,6-difluoro-3,5-dimethoxyphenyl)-7′-oxo-6′,7′-dihydro-5′H-spiro[cyclopropane-1,8′-pyrido[4,3-d]pyrimidine]-2′-yloxy)cyclopentyl)acrylamide] | – | – | >10 | >100 | – | >10 | >100 | > 200 | – | >10 | >100 | > 200 | 30 to 200 | 10 to 30 | – | – | > 200 | > 200 | > 200 | > 200
